Results published in BigSolDB 2.1.

## NC(N)=C([N+](=O)[O-])[N+](=O)[O-]
In 2-butanone, 293.15 K
  solubility (mole fraction): 0.00503
In 2-butanone, 298.15 K
  solubility (mole fraction): 0.0056
In 2-butanone, 303.15 K
  solubility (mole fraction): 0.00613
In 2-butanone, 308.15 K
  solubility (mole fraction): 0.00659
In 2-butanone, 313.15 K
  solubility (mole fraction): 0.00714
In 2-butanone, 318.15 K
  solubility (mole fraction): 0.00782
In 2-butanone, 323.15 K
  solubility (mole fraction): 0.00837
In 2-butanone, 328.15 K
  solubility (mole fraction): 0.00899
In 2-butanone, 333.15 K
  solubility (mole fraction): 0.00957
In DMSO, 293.15 K
  solubility (mole fraction): 0.172
In DMSO, 298.15 K
  solubility (mole fraction): 0.177
In DMSO, 303.15 K
  solubility (mole fraction): 0.181
In DMSO, 308.15 K
  solubility (mole fraction): 0.184
In DMSO, 313.15 K
  solubility (mole fraction): 0.189
In DMSO, 318.15 K
  solubility (mole fraction): 0.193
In DMSO, 323.15 K
  solubility (mole fraction): 0.197
In DMSO, 328.15 K
  solubility (mole fraction): 0.201
In DMSO, 333.15 K
  solubility (mole fraction): 0.206
In MIBK, 293.15 K
  solubility (mole fraction): 0.00278
In MIBK, 298.15 K
  solubility (mole fraction): 0.00327
In MIBK, 303.15 K
  solubility (mole fraction): 0.00358
In MIBK, 308.15 K
  solubility (mole fraction): 0.00402
In MIBK, 313.15 K
  solubility (mole fraction): 0.00428
In MIBK, 318.15 K
  solubility (mole fraction): 0.00467
In MIBK, 323.15 K
  solubility (mole fraction): 0.00512
In MIBK, 328.15 K
  solubility (mole fraction): 0.00553
In MIBK, 333.15 K
  solubility (mole fraction): 0.006
In cyclopentanone, 293.15 K
  solubility (mole fraction): 0.00715
In cyclopentanone, 298.15 K
  solubility (mole fraction): 0.00767
In cyclopentanone, 303.15 K
  solubility (mole fraction): 0.0083
In cyclopentanone, 308.15 K
  solubility (mole fraction): 0.0089
In cyclopentanone, 313.15 K
  solubility (mole fraction): 0.00948
In cyclopentanone, 318.15 K
  solubility (mole fraction): 0.0103
In cyclopentanone, 323.15 K
  solubility (mole fraction): 0.011
In cyclopentanone, 328.15 K
  solubility (mole fraction): 0.0119
In cyclopentanone, 333.15 K
  solubility (mole fraction): 0.0128
